In patent US5376679A, “Bicyclic or tricyclic biocidal compounds” (Shell Internationale Research Maatschappij B.V., priority 1988, dated 1994):
Values after ≈ are worked out from the molar mass of the structure shown.

Experiments:
Assay type in all cases: in vivo
Plasmopara viticola [1] = assay: Direct protectant activity against vine downy mildew (Pvp); design: Pvp: direct protectant activity against vine downy mildew: scale not given here; settings: foliar spray, 1 kg/ha; activity grade 1 or 2, not defined
Summary of the method: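 Lower leaf surfaces of whole vine plants (cv Cabernet Sauvignon) were sprayed at 1 kg/ha in water/acetone with surfactant, then inoculated 24 h later with 10^4 zoosporangia/ml. Scored as % leaf area with sporulation versus control leaves.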

Puccinia Recondita = assay: Direct protectant activity against wheat brown rust (Pr); design: scale not given here; settings: foliar spray, 1 kg/ha, 10 days; activity grade 1 or 2, not defined
Procedure: (i) Activity Against Wheat Brown Rust (Puccinia Recondita; Pr) The test is a direct protectant one using a foliar spray. […] The plants are then sprayed with the test compound at a dosage of 1 kg/ha using a track sprayer as described under (a). Test compounds are applied as solutions or suspensions in a mixture of acetone and water (50:50 v/v) containing 0.04% surfactant ("TWEEN 20"--Trade Mark). 18-24 hours after treatment, the seedlings are inoculated by spraying the plants from all sides with an aqueous spore suspension containing about 10^5 spores/ml. For 18 hours after inoculation, the plants are kept in high humidity conditions at a temperature of 20°-22° C. Thereafter, the plants are kept in ambient glasshouse conditions, that is, in moderate relative humidity and at a temperature of 20° C. The disease is assessed 10 days after inoculation on the basis of the percentage of the plant covered by sporulating pustules compared with that on the control plants.

Leptosphaeria nodorum = assay: Direct antisporulant activity against wheat leafspot (Ln); design: scale not given here; settings: foliar spray, 1 kg/ha; activity grade 1 or 2, not defined
Summary of the method: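 Single-leaf wheat plants were spray-inoculated with 8×10^5 spores/ml and held 24 h at high humidity before foliar spray treatment. Plants were then kept 5 days in the glasshouse. Read-out is the percentage of leaf area sporulating, relative to untreated controls.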

[2] = system: rice root nematode Meloidogyne graminicola; assay: Nematicidal water screen; settings: for activity against the nematodes, water screen: nematodes retained in dilute aqueous solution
Procedure: (§1) The nematicidal activity of the compounds of Example 17 and 23 was investigated. They were tested against the rice root nematode Meloidogyne graminicola in a water screen whereby the effect of retaining the nematodes in a dilute aqueous solution of the compounds was studied, and in a soil drench test in which the propensity of these nematodes to cause knots in the roots of grain sorghum S. bicolor was studied as a function of concentration of the compounds applied to the soil. […] Thus in the water screen test it was determined that the minimum inhibitory concentration of the compound of Example 23 was 0.53 ppm.

[3] = system: rice root nematode Meloidogyne graminicola; assay: Nematicidal soil drench test (root knots in grain sorghum); settings: knots in roots of grain sorghum S. bicolor
Procedure: as §1

[4] = system: Erysiphe graminis f.sp. hordei; assay: Direct antisporulant activity against barley powdery mildew (Eg); design: scale not given here; settings: foliar spray, 1 kg/ha; activity grade 1 or 2, not defined
Summary of the method: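 Barley seedlings (cv. Golden Promise) were dusted with conidia one day before a foliar spray of compound. Plants were then held at ambient glasshouse conditions for up to 7 days. Sporulating leaf area (%) was scored against untreated control plants.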

Plasmopara viticola [5] = assay: Antisporulant activity against vine downy mildew (Pva); settings: foliar spray, 1 kg/ha; activity grade 1 or 2, not defined
Procedure: (j) Antisporulant Activity Against Vine Downy Mildew (Plasmopara viticola; Pva)
The test is a direct antisporulant one using a foliar spray. The lower surfaces of leaves of whole vine plants (cv Cabernet Sauvignon) are inoculated by spraying with an aqueous suspension containing 10^4 zoosporangia/ml 2 days prior to treatment with the test compound. The inoculated plants are kept for 24 hours in a high humidity compartment, and then 24 hours at glasshouse ambient temperature and humidity. When the plants are dry, infected leaves are sprayed on their lower surfaces with a solution of active material in 1:1 water/acetone containing 0.04% w/w "Triton X-155" (trade mark) (an octylphenol polyethoxylate surfactant). The spraying is carried out with a moving track sprayer with delivers 620 liter/ha, and the concentration of active material is calculated to give an application rate of 1 kg/ha. After spraying, the plants are returned to normal glasshouse conditions for 96 hours and are then transferred to the high humidity compartment for 24 hours to induce sporulation, prior to assessment. Assessment is visual and is based on the percentage of the leaf area covered by sporulation compared with that on control leaves.

Alternaria Solani = assay: Direct protectant activity against tomato early blight (As); design: As: activity against tomato early blight: scale not given here; settings: for As: activity against tomato early blight: foliar spray as under (a), 8 days, activity grade 1 or 2, not defined; as to As: activity against tomato early blight: dose 1000 g/ha
Procedure: (g) Activity Against Tomato Early Blight (Alternaria Solani; As). The test is a direct protectant one using a foliar spray. The upper surfaces of leaves of young tomato plants are sprayed with a solution of active material as described in (a) above. After 24 hours under normal glasshouse conditions, the upper surfaces of the leaves are inoculated by spraying with an aqueous suspension containing 10^4 spores/ml. The inoculated plants are kept for 72 hours in a high humidity compartment and are then removed to lower humidity (50-70% relative humidity). Assessment is made 8 days after inoculation.

Plasmopara viticola [6] = assay: Translaminar protectant test, vine downy mildew (Pvt); settings: secondary screening
Description: The fungicidal activity of certain of the compounds was investigated further, in secondary screening.

Botrytis cinerea = assay: Direct protectant activity against vine grey mould (Bcp); settings: for Bcp: direct protectant activity against vine grey mould: foliar spray, 1 kg/ha, activity grade 1 or 2, not defined
Description: (b) Direct Protectant Activity Against Vine Grey Mould (Botrytis cinerea; Bcp) The test is a direct protectant one using a foliar spray and is effected as described under (a), with the difference that the leaves are inoculated by spraying with an aqueous solution containing 10^5 conidia/ml.

SMILES	Pvp: direct protectant activity against vine downy mildew (Plasmopara viticola [1])	Pr: activity against wheat brown rust (Puccinia Recondita)	Ln: activity against wheat leafspot (Leptosphaeria nodorum)	Eg: activity against barley powdery mildew [4]	Other: Pva, antisporulant activity against vine downy mildew (Plasmopara viticola [5])	As: activity against tomato early blight (Alternaria Solani)	also measured
CC1(C)Cc2cc(Cl)cc([N+]([O-])=NC#N)c2O1 [Example 4]	2	2	1				
Cc1cc2cc([N+]([O-])=NC#N)ccc2o1 [Example 23]		2		1	2	1	MIC ([2]; Meloidogyne graminicola, water screen, read-out: minimum inhibitory concentration, water screen): 0.53 µg/mL (≈ 2.63 µM); activity against the nematodes, water screen [2]: activity against the nematodes; activity against the nematodes, soil drench test [3]: activity against the nematodes
N#CN=[N+]([O-])c1cc(Cl)cc2c1OC(CO)C2 (stereo not shown) [Example 11]	2	1					
N#CN=[N+]([O-])c1cc(Cl)cc2c1OCC=C2 [Example 26]	2	1		2	2		activity against Pvt (Plasmopara viticola [6]): high activity; Bcp: direct protectant activity against vine grey mould (Botrytis cinerea): 2
Cc1oc2c([N+]([O-])=NC#N)cccc2c1C [Example 18]	2	2		1		2	
CC1(C)C=Cc2cc(F)cc([N+]([O-])=NC#N)c2O1 [Example 29]				1	2		
N#CN=[N+]([O-])c1cc(Cl)cc2c1OC(CCl)C2 (stereo not shown) [Example 10]	2	2	1				
CC1Oc2c(cc(Cl)cc2[N+]([O-])=NC#N)C1C (stereo not shown) [Example 5]	2	2	1	1	2		
CC1Cc2cc(Cl)cc([N+]([O-])=NC#N)c2O1 (stereo not shown) [Example 6]	2	2	1			1	
N#CN=[N+]([O-])c1ccc2oc(=O)ccc2c1 [Example 1]	2	2	1			2	activity against Pvt (Plasmopara viticola [6]): high activity; Bcp: direct protectant activity against vine grey mould (Botrytis cinerea): 1; activity against As (Alternaria Solani; secondary screening): high activity
Cc1cc2cccc([N+]([O-])=NC#N)c2o1 [Example 16]	2	1				2	activity against Pvt (Plasmopara viticola [6]): high activity; Bcp: direct protectant activity against vine grey mould (Botrytis cinerea): 2; activity against Bcp (Botrytis cinerea; secondary screening): high activity
CC1Oc2c(cccc2[N+]([O-])=NC#N)C1C (stereo not shown) [Example 9]			1	1	1		
N#CN=[N+]([O-])c1cccc2c3c(oc12)CCCC3 [Example 17]	2	1	1			1	activity against the nematodes, water screen [2]: activity against the nematodes; activity against the nematodes, soil drench test [3]: activity against the nematodes
